According to patent US10206388B2, “Formulation component” (SYNGENTA LIMITED, priority 2011, dated 2019):

Key:
Type in all cases: in vivo
[1] = system: Tetranychus urticae; test: Two spotted spider mite mortality on French bean, abamectin with aromatic ester adjuvants; details: for % mortality of Tetranychus urticae: adjuvant 0.1% v/v where present, French bean, 10 days, larva and adults averaged
Protocol: The efficacy of the benzoic acid esters Finsolv® SB (isostearyl benzoate) and Finsolv® TN (C12-C15 alkyl benzoate) and the aromatic ester ethoxylate Dermol®25-3B (C12-C15 alkyl ethoxy (3) benzoate) as adjuvants in compositions containing abamectin was tested and compared to the efficacy of abamectin compositions which lack this type of adjuvant. The adjuvants were present at 0.1% v/v in the abamectin compositions. The surfactants polyoxyethylene sorbitan monooleate and an ethoxylated castor oil were also present in all the abamectin compositions tested.
Two week old French bean (Phaseolus vulgaris) plants were infested with a mixed population of two spotted spider mite Tetranychus urticae. One day after infestation the plants were treated with the test compositions, with a track sprayer from the top with a rate of 200 liters per hectare. Plants were incubated in the greenhouse for 10 days and the evaluation was done on mortality against Larva and Adults, just on the lower side (untreated) of the leaves. Each experiment was replicated twice and the results were averaged. The mortality against Larva and Adults was then averaged.

[2] = system: Chenopodium album (CHEAL); test: Glasshouse weed test, nicosulfuron with adjuvants; details: mean over two rates
Protocol: (§1) The aromatic ester Finsolv® TN (C12-C15 alkyl benzoate) was tested in a glasshouse against four weed species using the herbicide nicosulfuron. An agrochemical composition was prepared containing 0.2% v/v of the adjuvant in a track sprayer, and was applied at a volume of 200 liters per hectare. Nicosulfuron was applied at either 30 or 60 grams of pesticide per hectare on each of the weed species. The weed species and their growth stage at spraying were Abutilon theophrasti (ABUTH; growth stage 13), Chenopodium album (CHEAL; growth stage 14), Digitaria sanguinalis (DIGSA; growth stage 13), and Setaria viridis (SETVI; growth stage 13).
(§2) Each spray test replicated three times. The efficacy of the herbicide was assessed visually and expressed as a percentage of the leaf area killed. Samples were assessed at time periods of 7, 14 and 20 days following application. The results shown in Table 6 below are mean averages over the two rates of nicosulfuron, three replicates and the three assessment timings, and are compared to the efficacy of nicosulfuron in the absence of an adjuvant, and nicosulfuron in the presence of the commercially available tank-mix adjuvant, Atplus411F®.
(§3) A second experiment was conducted to assess the efficacy of Finsolv® TN as an adjuvant in compositions of nicosulfuron. This was carried out as outlined above, with the following change: samples were assessed at 14 and 20 days post application.
(§4) The results shown in Table 7 below are mean averages over the two rates of nicosulfuron, three replicates and the two assessment timings, and are compared to the efficacy of nicosulfuron in the absence of an adjuvant, and nicosulfuron in the presence of the commercially available tank-mix adjuvant, Atplus411F®.
(§5) The aromatic esters Benzoate 1 (see Example 9), Benzoflex 354 (2,2,4-trimethyl-1,3-pentanediol dibenzoate) and Finsolv® SB (stearyl benzoate) were tested in a glasshouse against four weed species using the herbicide nicosulfuron. Nicosulfuron was applied at either 30 or 60 grams of pesticide per hectare on each of the weed species. The weed species and their growth stage at spraying were Abutilon theophrasti (ABUTH; growth stage 13), Chenopodium album (CHEAL; growth stage 14), Digitaria sanguinalis (DIGSA; growth stage 13), and Setaria viridis (SETVI; growth stage 13).
as §2, with “of” for “of 7,”, “Table 14” for “Table 6”, “the two” for “the three”

[3] = system: Digitaria sanguinalis (DIGSA); test: Glasshouse weed test, nicosulfuron with adjuvants; details: mean over two rates
Protocol: as §1, §2, §3, §4, §5
as §2, with “of” for “of 7,”, “Table 14” for “Table 6”, “the two” for “the three”

[4] = system: Setaria viridis (SETVI); test: Glasshouse weed test, nicosulfuron with adjuvants; details: mean over two rates
Protocol: as §1, §2, §3, §4, §5
as §2, with “of” for “of 7,”, “Table 14” for “Table 6”, “the two” for “the three”

[5] = system: Abutilon theophrasti (ABUTH); test: Glasshouse weed test, nicosulfuron with adjuvants; details: mean over two rates
Protocol: as §1, §2, §3, §4, §5
as §2, with “of” for “of 7,”, “Table 14” for “Table 6”, “the two” for “the three”

[6] = system: four weed species (ABUTH, CHEAL, DIGSA, SETVI); test: Glasshouse weed test, nicosulfuron with adjuvants, mean across species; details: mean over two rates
Protocol: as §1, §2, §3, §4, §5
as §2, with “of” for “of 7,”, “Table 14” for “Table 6”, “the two” for “the three”
An agrochemical composition was prepared containing 0.2% v/v of the adjuvant in a track sprayer and was applied at a volume of 200 liters per hectare. The adjuvant oils were emulsified using a small amount of the surfactant Pluronic® PE 10500, which was present in the composition at a concentration of 0.02% v/v. Nicosulfuron was applied at either 30 or 60 grams of pesticide per hectare on each of the weed species. The weed species and their growth stage at spraying were Abutilon theophrasti (ABUTH; growth stage 13), Chenopodium album (CHEAL; growth stage 14-15), Digitaria sanguinalis (DIGSA; growth stage 14), and Setaria viridis (SETVI; growth stage 13-14).
Each spray test replicated three times. The efficacy of the herbicide was assessed visually and expressed as a percentage of the leaf area killed. Samples were assessed at time periods of 14 and 21 days following application. […]

[7] = Table 6, Example 5: nicosulfuron 30 or 60 g/ha, adjuvant 0.2% v/v, three replicates, 7, 14 and 20 days
[8] = Table 7, Example 5 second experiment: nicosulfuron 30 or 60 g/ha, adjuvant 0.2% v/v, three replicates, 14 and 20 days
[9] = Table 14, Example 10: nicosulfuron 30 or 60 g/ha, three replicates, 14 and 20 days

## CC(C)CCCCCCCCCCCCCCCOC(=O)c1ccccc1 [Finsolv® SB, Isostearyl benzoate]
[1]; aromatic ester composition 0.1% v/v without abamectin present
  Mortality of Tetranychus urticae: no mortality

## abamectin
[1]; abamectin 0.2 ppm
  % mortality of Tetranychus urticae: 0%
[1]; abamectin 0.4 ppm
  % mortality of Tetranychus urticae: 0%
[1]; abamectin 0.8 ppm
  % mortality of Tetranychus urticae: 27%
[1]; abamectin 1.5 ppm
  % mortality of Tetranychus urticae: 70%
[1]; abamectin 3 ppm, lower untreated leaf side
  % mortality of Tetranychus urticae: 95%

## COc1cc(OC)nc(NC(=O)NS(=O)(=O)c2ncccc2C(=O)N(C)C)n1 [Nicosulfuron, nicosulfuron]
[2]; [7]
  Mean percentage kill CHEAL: 26.7 B %
[2]; [8]
  Mean percentage kill CHEAL: 25.8 B %
[2]; [9]
  Mean percentage kill CHEAL: 44.6 B %
[3]; [7]
  Mean percentage kill DIGSA: 1.1 B %
[3]; [8]
  Mean percentage kill DIGSA: 0.0 B %
[3]; [9]
  Mean percentage kill DIGSA: 56.3 B %
[4]; [7]
  Mean percentage kill SETVI: 33.3 C %
[4]; [8]
  Mean percentage kill SETVI: 61.3 C %
[4]; [9]
  Mean percentage kill SETVI: 81.0 B %
[5]; [7]
  Mean percentage kill ABUTH: 19.4 B %
[5]; [8]
  Mean percentage kill ABUTH: 29.2 B %
[5]; [9]
  Mean percentage kill ABUTH: 56.7 C %
[6]; [7]
  Mean percentage kill, Mean across species: 20.1 B %
[6]; [8]
  Mean percentage kill, Mean across species: 29.1 B %
[6]; [9]
  Mean percentage kill, Mean across species: 59.6 B %
[6]; Table 19, Example 15: nicosulfuron 30 or 60 g/ha, adjuvant 0.2% v/v emulsified with Pluronic PE 10500 0.02% v/v, three replicates, 14 and 21 days
  Mean percentage kill, Mean across species: 29.8B %
[6]; Table 23, Example 19: absence of an adjuvant, nicosulfuron 30 or 60 g/ha, three replicates, 14 and 21 days
  Mean percentage kill, Mean across species: 40.1%
[6]; Table 33, Example 33: nicosulfuron 30 or 60 g/ha, three replicates, 14 and 21 days
  Mean percentage kill, Mean across species: 40.1B %
